Data published in paper PMC8320603 (Current Research in Toxicology, 2021).
Read-outs that look alike come from different tables or passages of the source.

Tests used:
CYP1A2 = target: T1, CYP1A2 (Homo sapiens, UniProt P05177); experiment: CYP screening of gefitinib and erlotinib with human pooled supersomes; type: in vitro ADME; settings: 10 µM, at 60 min
T1 sequence (P05177 1-516): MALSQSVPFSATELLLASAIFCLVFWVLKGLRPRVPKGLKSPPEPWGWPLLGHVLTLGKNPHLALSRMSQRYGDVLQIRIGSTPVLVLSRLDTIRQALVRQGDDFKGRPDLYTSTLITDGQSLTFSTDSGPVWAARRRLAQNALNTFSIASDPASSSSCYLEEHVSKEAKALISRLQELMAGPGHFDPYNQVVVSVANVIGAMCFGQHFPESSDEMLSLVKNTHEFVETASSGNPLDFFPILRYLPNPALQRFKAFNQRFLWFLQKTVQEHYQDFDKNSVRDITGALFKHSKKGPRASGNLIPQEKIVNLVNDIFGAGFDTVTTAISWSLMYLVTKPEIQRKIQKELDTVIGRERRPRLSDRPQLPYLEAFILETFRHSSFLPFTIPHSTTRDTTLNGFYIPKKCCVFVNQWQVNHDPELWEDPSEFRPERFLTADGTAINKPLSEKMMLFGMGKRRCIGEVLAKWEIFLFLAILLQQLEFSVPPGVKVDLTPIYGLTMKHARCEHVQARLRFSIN

plasma proteins [1] = settings: cited from earlier work
CYP3A4 = CYP3A4 (Homo sapiens, UniProt P08684); settings: supersomes, 10 µM, at 60 min
Chain of CYP3A4 (P08684 whole entry): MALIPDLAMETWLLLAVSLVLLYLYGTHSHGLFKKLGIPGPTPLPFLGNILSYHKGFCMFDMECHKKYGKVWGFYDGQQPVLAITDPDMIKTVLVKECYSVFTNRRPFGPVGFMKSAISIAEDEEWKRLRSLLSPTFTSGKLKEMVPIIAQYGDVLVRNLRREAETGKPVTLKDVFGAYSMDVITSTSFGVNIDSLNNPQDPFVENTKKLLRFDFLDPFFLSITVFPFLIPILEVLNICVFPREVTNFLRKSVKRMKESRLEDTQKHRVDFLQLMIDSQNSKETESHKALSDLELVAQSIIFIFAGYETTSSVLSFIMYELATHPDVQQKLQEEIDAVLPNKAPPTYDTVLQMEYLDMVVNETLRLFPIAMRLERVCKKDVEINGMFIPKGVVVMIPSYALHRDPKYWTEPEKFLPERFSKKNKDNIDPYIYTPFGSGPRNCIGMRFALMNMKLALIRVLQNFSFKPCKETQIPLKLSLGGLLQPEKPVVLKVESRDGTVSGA

CYP2D6 = CYP2D6 (Homo sapiens, UniProt P10635); experiment: CYP screening of gefitinib and erlotinib with human pooled supersomes; type: in vitro ADME; settings: 10 µM
Chain of CYP2D6 (P10635 whole entry): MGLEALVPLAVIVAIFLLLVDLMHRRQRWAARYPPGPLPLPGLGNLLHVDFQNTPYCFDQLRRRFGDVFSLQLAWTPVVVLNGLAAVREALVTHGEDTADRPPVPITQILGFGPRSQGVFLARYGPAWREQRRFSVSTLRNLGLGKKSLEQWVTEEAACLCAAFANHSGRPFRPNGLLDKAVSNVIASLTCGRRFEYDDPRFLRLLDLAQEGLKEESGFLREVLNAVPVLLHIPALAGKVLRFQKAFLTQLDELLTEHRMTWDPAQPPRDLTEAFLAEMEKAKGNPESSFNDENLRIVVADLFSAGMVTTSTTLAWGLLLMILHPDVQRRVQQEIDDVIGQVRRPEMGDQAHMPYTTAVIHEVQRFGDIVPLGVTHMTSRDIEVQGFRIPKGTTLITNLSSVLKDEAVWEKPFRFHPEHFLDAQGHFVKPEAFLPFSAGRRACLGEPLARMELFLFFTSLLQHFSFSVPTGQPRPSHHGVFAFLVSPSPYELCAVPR

plasma proteins [2] = experiment: Human plasma rapid equilibrium dialysis; type: in vitro ADME; settings: pooled human plasma, 4 h of shaking, 10 µM, monitored drug alone
[3] = test system: cryopreserved pooled human primary hepatocytes
[4] = 4 h, 10 µM each, monitored drug + Flx
[5] = 4 h, 10 µM each, monitored drug + Flx + Los
[6] = 4 h, 10 µM each, monitored drug + Los
[7] = 4 h incubation, 10 µM, monitored drug alone
[8] = 4 h, 10 µM each, monitored drug + Erl
[9] = 4 h, 10 µM each, monitored drug + Gef

Row | metabolism by CYP1A2 (CYP1A2) | metabolism by CYP3A4 (CYP3A4) | metabolism by CYP2D6 (CYP2D6; supersomes, at 60 min) | RED Protein Binding, Binding (%) (plasma proteins [2]) | Parent remain (%) [3, 4] [%] | Parent remain (%) [3, 5] [%] | Parent remain (%) [3, 6] [%] | Parent remain (%) [3, 7] [%] | drug remaining (CYP2D6; CYP2D6 supersomes) | Parent remain (%) [3, 8] [%] | Parent remain (%) ([3]; 4 h, 10 µM each, monitored drug + Erl + Los) | Parent remain (%) [3, 9] [%] | Parent remain (%) ([3]; 4 h, 10 µM each, monitored drug + Gef + Los) | Parent remain (%) ([3]; 4 h, 10 µM each, monitored drug + Erl + Flx) | Parent remain (%) ([3]; 4 h, 10 µM each, monitored drug + Gef + Flx) | Compound | plasma protein binding, % bound (plasma proteins [1]; literature value ref Christiansen et al., 2009) [%] | plasma protein binding, % bound (plasma proteins [1]; literature value ref Li et al., 2006) | plasma protein binding, % bound (plasma proteins [1]; literature value ref Van Harten 1993) [%] | plasma protein binding, % bound (plasma proteins [1]; literature value ref Sica et al., 2005)
1 | significantly metabolized | significantly metabolized | significantly metabolized | 96 ± 0 | 75 ± 3 | 86 ± 9 | 63 ± 2 | 62 ± 13 |  |  |  |  |  |  |  | C#Cc1cccc(Nc2ncnc3cc(OCCOC)c(OCCOC)cc23)c1 [Erlotinib] | 95 |  |  | 
2 |  |  |  | > 95 | 72 ± 10 | 96 ± 4 | 58 ± 3 | 65 ± 2 | less than 80% |  |  |  |  |  |  | COc1cc2ncnc(Nc3ccc(F)c(Cl)c3)c2cc1OCCCN1CCOCC1 [Gefitinib] |  | ~ 97% |  | 
3 |  |  |  | 95 ± 1 |  |  |  | 75 ± 9 |  | 102 ± 1 | 121 ± 3 | 87 ± 10 | 122 ± 16 |  |  | CNCCC(Oc1ccc(C(F)(F)F)cc1)c1ccccc1 (stereo not drawn) [Fluoxetine] |  |  | 95 | 
4 |  |  |  | > 95 |  |  |  | 77 ± 6 |  | 89 ± 10 |  | 89 ± 4 |  | 99 ± 4 | 112 ± 13 | CCCCc1nc(Cl)c(CO)n1Cc1ccc(-c2ccccc2-c2nn[nH]n2)cc1 [Losartan] |  |  |  | greater than 98%
